Reference: US12673055B2, “Treatment of atopic dermatitis with tradipitant” (Vanda Pharmaceuticals Inc., priority 2020, dated 2026)

Test system: atopic dermatitis (AD) patients with severe pruritus
Experiment: EPIONE randomized, placebo-controlled phase III study
Assay type: in vivo, human
Set-up: key to WI-NRS Adjusting for IGA Severity / WI-NRS (change) / Diary WI-NRS: change from baseline in WI-NRS itch score
Description: A randomized, placebo-controlled phase III study is conducted in atopic dermatitis (AD) patients with severe pruritus with a range of disease severity presentation from mild (23%) to moderate (64%) and severe (13%) as determined by the Investigator's Global Assessment scale (IGA). In the study, patients (n=341) are randomized 1:1 to receive either tradipitant or placebo for a treatment period of eight (8) weeks. Patients in the tradipitant arm of the study are dosed with 85 mg tradipitant twice daily (bid). Patients are assessed at baseline and post-randomization with a number of symptomatic and disease severity scales at regular intervals.
A significant interaction is observed between baseline disease severity and treatment (p=0.0004), where disease severity is measured by Investigator's Global Assessment (IGA) on a scale of 1-4.
Similar effects are seen throughout the treatment periods at all post-randomization visits comprising weeks 2, 4, 6 and 8 (Table 1).

[1] = mild AD (n = 79), 85 mg bid, Week 8

Question: What does the source list for `O=C(c1ccccc1Cl)c1cccnc1-c1nnn(Cc2cc(C(F)(F)F)cc(C(F)(F)F)c2)c1-c1ccncc1` [Tradipitant]?
Answer: WI-NRS (change) (IGA 1, 2 (mild AD, n = 79), Tradipitant n = 40, 85 mg bid, Week 2): −2.59; WI-NRS (change) (IGA 1, 2 (mild AD, n = 79), Tradipitant n = 40, 85 mg bid, Week 4): −3.39; WI-NRS (change) (IGA 1, 2 (mild AD, n = 79), Tradipitant n = 40, 85 mg bid, Week 6): −4.18; WI-NRS (change) (IGA 1, 2 (mild AD, n = 79), Tradipitant n = 40, 85 mg bid, Week 8): −4.74; Diary WI-NRS (IGA 1, 2 (n = 79), 85 mg bid, Week 2): −1.54; Diary WI-NRS (IGA 1, 2 (n = 79), 85 mg bid, Week 4): −2.78; Diary WI-NRS (IGA 1, 2 (n = 79), 85 mg bid, Week 6): −3.48; Diary WI-NRS (IGA 1, 2 (n = 79), 85 mg bid, Week 8): −4.23; Diary WI-NRS Diff (tradipitant vs placebo) (IGA 1, 2 (n = 79), Week 2): 1.18; WI-NRS Diff (tradipitant vs placebo) (IGA 1, 2 (n = 79), Week 2): 1.61; Diary WI-NRS Diff (tradipitant vs placebo) (IGA 1, 2 (n = 79), Week 4): 1.71; WI-NRS Diff (tradipitant vs placebo) (IGA 1, 2 (n = 79), Week 4): 1.92; Diary WI-NRS Diff (tradipitant vs placebo) (IGA 1, 2 (n = 79), Week 6): 1.76; WI-NRS Diff (tradipitant vs placebo) (IGA 1, 2 (n = 79), Week 6): 1.86; Diary WI-NRS Diff (tradipitant vs placebo) (IGA 1, 2 (n = 79), Week 8): 2.09; WI-NRS Diff (tradipitant vs placebo) (IGA 1, 2 (n = 79), Week 8): 1.60; WI-NRS Adjusting for IGA Severity (ITT (n = 341), 85 mg bid, Week 2): −2.43; WI-NRS Adjusting for IGA Severity (ITT (n = 341), 85 mg bid, Week 4): −3.34; WI-NRS Adjusting for IGA Severity (ITT (n = 341), 85 mg bid, Week 6): −3.75; WI-NRS Adjusting for IGA Severity (ITT (n = 341), 85 mg bid, Week 8): −4.36; WI-NRS (change) (ITT (n = 341), Tradipitant n = 171, 85 mg bid, Week 2): −1.68; WI-NRS (change) (ITT (n = 341), Tradipitant n = 171, 85 mg bid, Week 4): −2.58; WI-NRS (change) (ITT (n = 341), Tradipitant n = 171, 85 mg bid, Week 6): −3.00; WI-NRS (change) (ITT (n = 341), Tradipitant n = 171, 85 mg bid, Week 8): −3.61; WI-NRS Adjusting for IGA Severity, Diff (tradipitant vs placebo) (ITT (n = 341), Week 2): 1.14; WI-NRS Diff (tradipitant vs placebo) (ITT (n = 341), Week 2): 0.23; WI-NRS Adjusting for IGA Severity, Diff (tradipitant vs placebo) (ITT (n = 341), Week 4): 1.29; WI-NRS Diff (tradipitant vs placebo) (ITT (n = 341), Week 4): 0.39; WI-NRS Adjusting for IGA Severity, Diff (tradipitant vs placebo) (ITT (n = 341), Week 6): 1.01; WI-NRS Diff (tradipitant vs placebo) (ITT (n = 341), Week 6): 0.11; WI-NRS Adjusting for IGA Severity, Diff (tradipitant vs placebo) (ITT (n = 341), Week 8): 1.08; WI-NRS Diff (tradipitant vs placebo) (ITT (n = 341), Week 8): 0.18; magnitude of improvement in pruritus (WI-NRS) compared with placebo (full population, week 8, difference not statistically significant): greater than that of placebo; improvement in WI-NRS compared to placebo, accounting for baseline disease severity and treatment interaction (full trial population, week 8, p=0.0217): significantly larger improvement; safety profile (in vivo): relatively safe profile; WI-NRS over placebo in the mild AD group (mild AD (IGA 1, 2), every visit): significantly improves WI-NRS over placebo at every visit; Responder Analysis: IGA 0 or 1 [1]: 60.0%; Responder Analysis: SCORAD 50% Improvement [1]: 55.0%; Responder Analysis: IGA 0 or 1, Diff (tradipitant vs placebo) (mild AD (n = 79), Week 8): 21.5%; Responder Analysis: SCORAD 50% Improvement, Diff (tradipitant vs placebo) (mild AD (n = 79), Week 8): 24.2%; Responder Analysis: WI-NRS ≥4 Improvement, Diff (tradipitant vs placebo) (mild AD (n = 79), Week 8): 39.2%; time course of response: onset of antipruritic effect (mild AD patients, daily diary): immediately after the first full day of tradipitant dosing; Responder Analysis: WI-NRS ≥4 Improvement (mild AD, IGA 1, 2 (n = 79), 85 mg bid, Week 8): 72.5%
